Measured values taken from patent publication US20250320248A1, “MENAQUINONE-BINDING COMPOUNDS AND METHODS OF USE THEREOF” (The Rockefeller University, priority 2021, published 2025).
Starred links: 1 amine or outer side, 2 acyl side, 3 side chain; linkers in the order of their positions; H or OH if unused. Positions of bridges follow the written chain, without caps; N, C: chain ends. Non-standard residues stand in square brackets, D forms with d. Residues, ends and D or L forms follow the SMILES beside them. X1 = CCCCC[C@H](CC(=O)[*:1])O[*:2]; GABA = NCCCC(=O)O

What was measured:
[1] = Isothermal titration calorimetry, DOPC liposomes containing lipid II; type: binding
Protocol: (§1) For MK and UQ binding, a 1:1 mixture of 1,2-dioleoyl-sn-glycero-3-phosphocholine (DOPC) and 1,2-dioleoyl-sn-glycero-3-phospho-rac-(1-glycerol) (DOPG) containing either 1.25 mol % MK4 or UQ10 was dissolved in chloroform. A lipid film was generated by drying this material under a stream of nitrogen followed by 2 h of vacuum drying. The resulting film was hydrated using 10 mM HEPES (pH 7.5) with 100 mM NaCl to give a final total lipid concentration of 5 mM. Using an Avanti Mini Extruder, this suspension was passed through a 100 nm polycarbonate filter 10 times. For ITC the sample cell was filled with 400 μL of 25 μM MBA prepared in 10 mM HEPES buffer. The syringe (150 μL) was loaded with a 5 mM lipid suspension with 1.25 mol % MK4 or UQ10. For lipid II binding, 10 mM DOPC containing 1 mol % lipid II was dissolved in chloroform. The resulting film was hydrated using 50 mM Tris (pH 7.5) with 100 mM NaCl and passed through a 100 nm polycarbonate filter 10 times. For ITC the sample cell was filled with 400 μL of 25 μM an MBA prepared in 50 mM Tris buffer. The syringe (150 μL) was loaded with a 10 mM DOPC suspension with 1 mol % lipid II. Data were collected by using an Auto-iTC200 (Malvern Panalytical) and processed by Affinimeter software using the “one binding site” model.

[2] = Isothermal titration calorimetry, DOPC:DOPG liposomes containing MK; type: binding
Protocol: as §1

[3] = system: Gram-positive bacteria (Bacillus subtilis, Staphylococcus aureus and Staphylococcus epidermidis); assay: Antibacterial activity against Gram-positive bacteria (broth micro-dilution); type: cell-based
Protocol: (§2) All antimicrobial assays were run in 96-well microtiter plates using a broth micro-dilution method. Diluted overnight cultures were used in all assays. For yeast strains, overnight cultures were diluted 2000-fold in YPD broth. For Enterococcus faecium and Staphylococcus aureus, overnight cultures were diluted 1000- and 10,000-fold in LB broth, respectively. For Streptococcus strains, overnight cultures were diluted 5,000-fold in Brain Heart Infusion (BHI) broth. For other bacteria, overnight cultures were diluted 5,000-fold in LB broth. 100 μL of each diluted culture was mixed with 100 μL of LB broth containing a syn-BNP at 2-fold serial dilutions across a 96-well microtiter plate row. The final concentration of each compound ranged from 64 to 0.25 μg/mL. Plates were incubated at 37° C. (bacteria) or 30° C. (yeast) for 16 h. The lowest concentration that inhibited visible microbial growth was recorded as the minimum inhibition concentration (MIC). All MIC assays were done in duplicate (n=2).

[4] = system: methicillin-resistant S. aureus COL; assay: Mouse peritonitis-sepsis model; settings: single subcutaneous dose 1 h after infection
Protocol: Female outbred Swiss Webster mice were used in all experiments. S. aureus COL was grown in Mueller-Hinton Broth at 37° C. overnight and diluted with 7% type II porcine stomach mucin supplemented with 0.2 mM FeNH4-citrate. Cultures were diluted to provide a challenge inoculum of ˜5×10^8 CFU in 0.2 mL. 0.2 mL of the challenge inoculum was administered via intraperitoneal injection.

[5] = system: Mycobacterium tuberculosis
[6] = system: Mtb mc2 6206/mLux in J774A.1 mouse macrophages; type: cell-based, Mycobacterium tuberculosis
S. aureus tn:hemB = assay: MIC against S. aureus hemB transposon insertion mutant; type: cell-based, Staphylococcus aureus
Protocol: All antimicrobial assays were run in 96-well microtiter plates using a broth micro-dilution method. Diluted overnight cultures were used in all assays. […] For Enterococcus faecium and Staphylococcus aureus, overnight cultures were diluted 1000- and 10,000-fold in LB broth, respectively. […] For other bacteria, overnight cultures were diluted 5,000-fold in LB broth. 100 μL of each diluted culture was mixed with 100 μL of LB broth containing a syn-BNP at 2-fold serial dilutions across a 96-well microtiter plate row. The final concentration of each compound ranged from 64 to 0.25 μg/mL. Plates were incubated at 37° C. (bacteria) or 30° C. (yeast) for 16 h. The lowest concentration that inhibited visible microbial growth was recorded as the minimum inhibition concentration (MIC). All MIC assays were done in duplicate (n=2).

[7] = system: Enterococcus or Streptococcus strains; assay: MIC against all eight Enterococcus or Streptococcus strains; type: cell-based; settings: MK-producing and MK-deficient
Protocol: as §2

Mycobacterium smegmatis = settings: reported in literature; cited from earlier work

Molecule: CCCCC[C@@H]1CC(=O)N[C@@H](C(C)C)C(=O)N[C@H](CCCNC(=N)N)C(=O)N[C@@H](C(C)C)C(=O)NCC(=O)N2CCC[C@H]2C(=O)N[C@@H](CC(C)C)C(=O)N[C@H](CCCNC(=N)N)C(=O)N[C@@H](CCC(=O)O)C(=O)N[C@H](Cc2ccc(O)cc2)C(=O)N[C@H](C)C(=O)NCCCC(=O)O1 [MBA3 D-Trp-10 to D-Ala] (V[dR]VGPL[dR]E[dY][dA][GABA]; linker N-C via X1)
- lipid II binding [1]: no lipid II binding or similarly low lipid II binding affinities
- ability to interact with MK [2]: completely abrogated

Molecule: CCCCC[C@@H]1CC(=O)N[C@@H](C(C)C)C(=O)N[C@H](CCCNC(=N)N)C(=O)N[C@@H](C(C)C)C(=O)N[C@@H](C)C(=O)N2CCC[C@H]2C(=O)N[C@@H](CC(C)C)C(=O)N[C@H](CCCNC(=N)N)C(=O)N[C@@H](CCC(=O)O)C(=O)N[C@H](Cc2ccc(O)cc2)C(=O)N[C@H](Cc2c[nH]c3ccccc23)C(=O)NCCCC(=O)O1 [MBA3 Gly-4 to L-Ala] (V[dR]VAPL[dR]E[dY][dW][GABA]; linker N-C via X1)
- ability to interact with MK [2]: completely abrogated

Molecule: CCCCC[C@@H]1CC(=O)N[C@@H](C(C)C)C(=O)N[C@H](CCCNC(=N)N)C(=O)N[C@@H](C(C)C)C(=O)NCC(=O)N2CCC[C@H]2C(=O)N[C@@H](CC(C)C)C(=O)N[C@H](CCCNC(=N)N)C(=O)N[C@@H](CCC(=O)O)C(=O)N[C@H](Cc2ccc(O)cc2)C(=O)N[C@H](Cc2c[nH]c3ccccc23)C(=O)NCCCC(=O)O1 [MBA3, metameb] (V[dR]VGPL[dR]E[dY][dW][GABA]; linker N-C via X1)
- antibacterial activity against Gram-positive bacteria [3]: good Gram-positive antibiosis
- mortality of infected mice compared to vehicle ([4]; 5, 10 and 30 mg/kg): dramatically decreased
- minimal dose required for 100% survival [4]: 10 mg/kg
- lipid II binding [1]: no lipid II binding or similarly low lipid II binding affinities
- activity against Mtb [5]: active
- MIC ([5]; lowest MIC against MDR Mtb): ≥ 0.078 µg/mL
- relative potency in macrophage assay [6]: most potent

Molecule: CCCCC[C@@H]1CC(=O)N[C@@H](C(C)C)C(=O)N[C@H](CCC(=O)O)C(=O)N[C@@H](CCCNC(=N)N)C(=O)NCC(=O)N2CCC[C@H]2C(=O)N[C@@H](CC(C)C)C(=O)N[C@H](CCC(N)=O)C(=O)N[C@@H](CCC(=O)O)C(=O)N[C@H](Cc2ccc(O)cc2)C(=O)N[C@H](Cc2c[nH]c3ccccc23)C(=O)NCCCC(=O)O1 [MBA4, alcameb] (V[dE]RGPL[dQ]E[dY][dW][GABA]; linker N-C via X1)
- antibacterial activity against Gram-positive bacteria [3]: good Gram-positive antibiosis

Molecule: CN[C@H](CC(C)C)C(=O)N[C@H]1C(=O)N[C@@H](CC(N)=O)C(=O)N[C@H]2C(=O)N[C@H]3C(=O)N[C@H](C(=O)N[C@H](C(=O)O)c4cc(O)cc(O)c4-c4cc3ccc4O)[C@H](O)c3ccc(c(Cl)c3)Oc3cc2cc(c3O[C@@H]2O[C@H](CO)[C@@H](O)[C@H](O)[C@H]2O[C@H]2C[C@](C)(N)[C@H](O)[C@H](C)O2)Oc2ccc(cc2Cl)[C@H]1O [vancomycin]
- MIC difference between wild-type S. aureus and tn:hemB strain (S. aureus tn:hemB): no significant differences in MIC
- antibacterial activity [7]: active

Molecule: lysobactin
- MIC difference between wild-type S. aureus and tn:hemB strain (S. aureus tn:hemB): no significant differences in MIC
- antibacterial activity [7]: active

Molecule: lysocin E
- activity against Mycobacterium smegmatis (Mycobacterium smegmatis): active

Molecule: nisin
- MIC difference between wild-type S. aureus and tn:hemB strain (S. aureus tn:hemB): no significant differences in MIC
- antibacterial activity [7]: active
- Kd ([1]; read-out: lipid II binding affinity Kd): 70 nM

Molecule: ramoplanin
- MIC difference between wild-type S. aureus and tn:hemB strain (S. aureus tn:hemB): no significant differences in MIC
- antibacterial activity [7]: active
